Assay results reported in patent US20240109917A1 (ACTELION PHARMACEUTICALS LTD, priority 2020, published 2024).
pIC50: −log10 of the molar value.

Columns and labels:
PDGFRβ = PDGFRβ (Rattus norvegicus (Rat), UniProt Q05030); assay: PDGFRβ Cellular Assay (PDGFRb P-Y751 HTRF in A10 cells stimulated with PDGF-BB); type: cell-based; details: read-out: PDGFR Cellular IC50
Method in brief: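 Phospho-Y751 PDGFRβ was measured by HTRF in lysates of A10 rat cells. Cells received compound for 3 hours before PDGF-BB stimulation (100 ng/mL working stock).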

[1] = target: His6-TEV-PDGFRβ (557-1016) (Homo sapiens (Human), UniProt P09619); assay: PDGFRβ HTRF Assay; type: biochemical; details: read-out: PDGFR HTRF IC50
Method in brief: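 HTRF KinEASE-TK readout (665/620 nm ratio) of TK-biotin substrate phosphorylation by His-tagged PDGFRβ kinase domain. Enzyme and inhibitor preincubated 30 min, then ATP/substrate added for 3 h at room temperature before 60 min EDTA quench/detection.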

His6-TEV-PDGFRβ (557-1016), sequence (P09619 557-1016): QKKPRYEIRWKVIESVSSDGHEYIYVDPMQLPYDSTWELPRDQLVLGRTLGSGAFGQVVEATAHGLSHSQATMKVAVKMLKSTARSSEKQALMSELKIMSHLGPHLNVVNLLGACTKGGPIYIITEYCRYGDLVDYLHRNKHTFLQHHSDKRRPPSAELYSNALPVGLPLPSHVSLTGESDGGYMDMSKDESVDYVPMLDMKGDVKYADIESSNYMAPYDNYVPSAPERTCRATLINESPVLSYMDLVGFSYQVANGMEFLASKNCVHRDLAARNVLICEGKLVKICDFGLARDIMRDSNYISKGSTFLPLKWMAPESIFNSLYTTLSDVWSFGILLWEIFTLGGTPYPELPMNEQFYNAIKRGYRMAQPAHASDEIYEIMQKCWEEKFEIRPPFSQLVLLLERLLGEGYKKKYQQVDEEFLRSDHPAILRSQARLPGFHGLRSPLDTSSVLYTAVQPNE
PDGFRβ, sequence (Q05030 32-1097): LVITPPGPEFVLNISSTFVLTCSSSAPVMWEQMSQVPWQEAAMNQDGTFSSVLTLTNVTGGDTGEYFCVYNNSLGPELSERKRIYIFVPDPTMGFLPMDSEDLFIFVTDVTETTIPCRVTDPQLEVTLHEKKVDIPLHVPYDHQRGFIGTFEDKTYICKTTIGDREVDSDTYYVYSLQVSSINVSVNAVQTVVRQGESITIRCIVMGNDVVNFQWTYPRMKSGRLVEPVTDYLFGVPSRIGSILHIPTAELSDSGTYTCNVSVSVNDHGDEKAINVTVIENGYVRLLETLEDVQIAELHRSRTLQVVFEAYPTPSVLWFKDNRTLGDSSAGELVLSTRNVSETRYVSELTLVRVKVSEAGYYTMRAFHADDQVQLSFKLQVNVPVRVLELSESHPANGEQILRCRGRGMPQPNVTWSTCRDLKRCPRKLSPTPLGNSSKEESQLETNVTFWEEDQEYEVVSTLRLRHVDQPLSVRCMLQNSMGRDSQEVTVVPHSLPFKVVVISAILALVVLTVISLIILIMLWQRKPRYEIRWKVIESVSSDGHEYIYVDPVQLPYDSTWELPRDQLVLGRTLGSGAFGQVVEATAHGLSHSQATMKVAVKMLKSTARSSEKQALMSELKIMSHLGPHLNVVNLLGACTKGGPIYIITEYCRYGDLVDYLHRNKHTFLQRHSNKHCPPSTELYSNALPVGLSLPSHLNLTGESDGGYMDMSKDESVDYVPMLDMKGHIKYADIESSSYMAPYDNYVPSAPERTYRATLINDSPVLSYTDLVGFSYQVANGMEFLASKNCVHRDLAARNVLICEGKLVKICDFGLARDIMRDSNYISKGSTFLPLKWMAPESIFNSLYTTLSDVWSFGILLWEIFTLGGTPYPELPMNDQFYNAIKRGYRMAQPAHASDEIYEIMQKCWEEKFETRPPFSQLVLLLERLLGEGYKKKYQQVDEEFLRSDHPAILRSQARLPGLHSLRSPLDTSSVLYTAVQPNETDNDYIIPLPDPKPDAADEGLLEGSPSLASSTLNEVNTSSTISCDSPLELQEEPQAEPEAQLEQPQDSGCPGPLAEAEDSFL

| Compound | pIC50 (PDGFRβ) | pIC50 [1] |
| --- | --- | --- |
| Cc1ncc(C(=O)NCCN2C3CCCC2CCC3)cc1NC(=O)c1cnn2cc(-c3cnn(C)c3)sc12 [Example 4, N-(5-((2-(9-azabicyclo[3.3.1]nonan-9-yl)ethyl)carbamoyl)-2-methylpyridin-3-yl)-2-(1-methyl-1H-pyrazol-4-yl)pyrazolo[5,1-b]thiazole-7-carboxamide] | 7.93 | 9.52 |
| Cc1ncc(C(=O)NCCN2CC(C)(C)C2)cc1NC(=O)c1cnn2cc(-c3cn(C)cn3)sc12 [Example 161] | 6.91 | 9.30 |
| Cc1ncc(C(=O)NCCN2CCCC(F)(F)C2)cc1NC(=O)c1cnn2cc(-c3cnn(C)c3)sc12 [Example 123, N-(5-((2-(3,3-difluoropiperidin-1-yl)ethyl)carbamoyl)-2-methylpyridin-3-yl)-2-(1-methyl-1H-pyrazol-4-yl)pyrazolo[5,1-b]thiazole-7-carboxamide] | 8.11 | 9.52 |
| Cc1ncc(C(=O)NCCN2CC3CCC2CC3)cc1NC(=O)c1cnn2cc(-c3ccc4oc(=O)[nH]c4c3)sc12 [Example 145, N-(5-((2-(2-azabicyclo[2.2.2]octan-2-yl)ethyl)carbamoyl)-2-methylpyridin-3-yl)-2-(2-oxo-2,3-dihydrobenzo[d]oxazol-5-yl)pyrazolo[5,1-b]thiazole-7-carboxamide] | 6.39 | 9.70 |
| Cc1ncc(C(=O)NCCN2CC(C)(C)C2)cc1NC(=O)c1cnn2cc(-c3cccnc3)sc12 [Example 158, N-(5-((2-(3,3-dimethylazetidin-1-yl)ethyl)carbamoyl)-2-methylpyridin-3-yl)-2-(pyridin-3-yl)pyrazolo[5,1-b]thiazole-7-carboxamide] | 6.81 | 9.05 |
| CC(=O)N1CCN(CCNC(=O)c2cnc(C)c(NC(=O)c3cnn4cc(-c5cnn(C)c5)sc34)c2)CC1 [Example 129, N-(5-((2-(4-acetylpiperazin-1-yl)ethyl)carbamoyl)-2-methylpyridin-3-yl)-2-(1-methyl-1H-pyrazol-4-yl)pyrazolo[5,1-b]thiazole-7-carboxamide] | < 5.52 | 8.54 |
| Cc1ncc(C(=O)NCCN2CC3CCC2CC3)cc1NC(=O)c1cnn2cc(-c3cnn(CS(C)(=O)=O)c3)sc12 [Example 143, N-(5-((2-(2-azabicyclo[2.2.2]octan-2-yl)ethyl)carbamoyl)-2-methylpyridin-3-yl)-2-(1-((methylsulfonyl)methyl)-1H-pyrazol-4-yl)pyrazolo[5,1-b]thiazole-7-carboxamide] | 6.00 | 9.22 |
| Cc1ncc(C(=O)NCCN2CC(C)(C)C2)cc1NC(=O)c1cnn2cc(-c3cnn(C)c3)sc12 [Example 126, N-(5-((2-(3,3-dimethylazetidin-1-yl)ethyl)carbamoyl)-2-methylpyridin-3-yl)-2-(1-methyl-1H-pyrazol-4-yl)pyrazolo[5,1-b]thiazole-7-carboxamide] | 7.10 | 9.52 |
| Cc1ncc(C(=O)NCCN2CC3CCC2CC3)cc1NC(=O)c1cnn2cc(-c3cn(C)nc3C)sc12 [Example 178, N-(5-((2-(2-azabicyclo[2.2.2]octan-2-yl)ethyl)carbamoyl)-2-methylpyridin-3-yl)-2-(1,3-dimethyl-1H-pyrazol-4-yl)pyrazolo[5,1-b]thiazole-7-carboxamide] | 7.73 | 9.70 |
